Assay results taken from US20080255121A1, “Combination Drug for Treating Autoimmune Disease” (DAINIPPON SUMITOMO PHARMA CO., LTD., priority 2004, published 2008).
Where “and” joins values, the source holds several entries; their conditions need not be identical. Equal entries are not always repeated.

Key:
CaMKIIα derived from rat = target: T1, CaMKIIα derived from rat (Rattus norvegicus, UniProt P11275); experiment: Examination of CaMKII inhibitory activity (1), phosphorylation of Autocamtide-2; format: biochemical
T1 construct: purchased Santa Cruz, Inc
Method: Test substances were dissolved in DMSO and diluted to various concentrations with a buffer solution (50 mM Tris-HCl: pH 7.5, 10 mM MgCl2, 1 mM Dithiothreitol (DTT)) (all of them are available from Nacalai Tesque, Inc.) for CaMKII reaction. CaMKIIα (final concentration 0.75 μg/ml) (Santa Cruz, Inc.) derived from rat was mixed with Autocamtide-2® (40 μM) (CALBIOCHEM Company) dissolved in CaMKII reaction buffer solution in the presence of the test substance and with CaMKII activation buffer solution (1 mMCaCl2, 1 μM calmodulin) (Nacalai Tesque, Inc.) and the reaction was started by further adding ATP (50 μM) (Nacalai Tesque, Inc.). The reaction was performed at 30° C. for five minutes and then SDS-PAGE sample buffer solution was added and the reaction was terminated by boiling for five minutes. Proteins in the reaction mixture were separated by 15% SDS-PAGE and blotted onto a PVDF membrane. Phosphorus taken in by Autocamtide-2 was reacted with an anti-phosphorylated serine/threonine antibody (Santa Cruz, Inc.) and quantified by ECL system (Amersham, Inc.) and NIH Image (downloadable from http://rsb.info.nih.gov/nih-image/).

[1] = test system: adjuvant-induced arthritis rats; experiment: Adjuvant-induced arthritis, therapeutic and prophylactic model; format: in vivo, rat; conditions: Compound (I) 2.5 to 80 mg/kg
Method: The adjuvant-induced arthritis model is a representative chronic inflammation model caused in rats, and it is widely used for pharmacological evaluation of antiinflammatory drugs and antirheumatic drugs. Accordingly, effects of Compound (I) and Compound (II) were examined in both therapeutic and prophylactic model. In the therapeutic model, the difference of the volume of a hind leg before and after the dosed period was calculated to examine edema suppression effect by the drug administration and the change of edema volume was examined. In the prophylactic model, the volume of a hind paw was measured over time during the dosed period and the effect of the drug for a long term period was examined. Although the hind paw volume or the edema volume was used as the index of efficacy evaluation, the edema volume means the increment from the normal volume of the hind paw which was not sensitized with the adjuvant, and therefore, the both indices can be used as approximately the same meaning.
A liquid paraffin suspension (1 mg/200 μl) of Mycobacterium butyricum (adjuvant) was subcutaneously injected at the tarsal part of the right hind paw of SD or Lewis rats (both male, six-week old) to cause arthritis. In the therapeutic model, 0.5% methylcellulose suspension of Compound (I) or Compound (II) which was prepared so that the dose was 1 ml per 100 g body weight was orally administered once a day for consecutive five days from the 17th day after the injection of the adjuvant. An indomethacin suspension prepared in the similar way was administered as the positive control. The volume of the hind paws was measured respectively for the right and the left by water replacement method just before the administration and in five hours after the last administration and the difference in the values just before the administration and in five hours after the last administration was calculated and assumed as the change in the edema volume. In the prophylatic model, the compounds were administered once a day for consecutive 21 days after the day when the adjuvant was injected. The volume of the right and left hind paws was measured by water replacement method every other day. In the prophylactic model of Compound (II), a suspension of D-penicillamine, an antirheumatic drug, was administered in the same way as a control.

[2] = test system: mouse type III allergy reaction; conditions: reported in Patent Document 4; cited from earlier work
adjuvant arthritis rats = conditions: reported in Patent Documents 3, 4 and Non-Patent Documents 3 to 5; cited from earlier work
[3] = test system: adjuvant-induced arthritis rats; experiment: Combination effect on adjuvant-induced arthritis, joint destruction score by soft X-ray (Example 20); format: in vivo, rat; conditions: Compound (I) 40 mg/kg and/or methotrexate 0.06 mg/kg, maximum 12
Method: Combination effect for adjuvant-induced arthritic rats was examined in the same manner as in Example 17.
Euthanasia was carried out for all the rats by aspiration of high concentration carbon dioxide after the last administration. Both the hind paws were cut off at the middle point of […]. Both the hind paws were fixed with 10% neutral buffered formalin liquid. […] The degree of joint destruction was recorded with a score. Observed sites were three points of the tibia, calcaneum and tarsal bone, and the possible maximum score was 12.
1: Minimum destruction of joints and bones and new formation of cartilages
2: Mild destruction of joints and bones and new formation and light ossification of cartilages
3: Moderate destruction of joints and bones and ossification
4: Severe destruction and deformation of joints and bones and intense ossification

[4] = test system: adjuvant-induced arthritis rats; experiment: Combination effect on adjuvant-induced arthritis (Example 19); format: in vivo, rat; conditions: only methotrexate 0.060 mg/kg oral once a day 17 days
Method: Combination effect for rat adjuvant-induced arthritis was examined in the same manner as in Example 17.
The volume of the left hind paw was measured by water replacement method just before the administration and after the last administration, and AUC (the area under the curve formed by plotting the difference of the value at the time of grouping from the value of each time point during the administration period against the time) of the increased volume of the left hind paw was determined. Joint destruction of the right hind paw (injected paw) and the left hind paw (non-injection paw) can be measured by X-ray and this can be also used as the index to evaluate the combination effect.

[5] = test system: experimental allergic encephalomyelitis mice; experiment: Experimental allergic encephalomyelitis, Compound (I); format: in vivo
Description: The severity of the condition was indicated as a score (disease score) according to the following criteria.
0.5: Slight paralysis of tail
2: Light paralysis of hind paw
3: Medium to intense paralysis of hind paw or light forelimb paralysis
4: Complete paralysis of hind paw or medium to intense paralysis of forelimb
5: Paralysis of four limbs or toward death period
In the prednisolone administered group as a positive control, prednisolone was suspended in 0.5% methylcellulose solution to prepare a liquid of 0.3 mg/ml for administration and 0.1 ml per 10 g mouse weight was orally administered. In a control group, only 0.5% methylcellulose solution was […] administered. The administration was started on the sensitization day and carried out once a day for consecutive 40 days.

T1 sequence (P11275 whole entry): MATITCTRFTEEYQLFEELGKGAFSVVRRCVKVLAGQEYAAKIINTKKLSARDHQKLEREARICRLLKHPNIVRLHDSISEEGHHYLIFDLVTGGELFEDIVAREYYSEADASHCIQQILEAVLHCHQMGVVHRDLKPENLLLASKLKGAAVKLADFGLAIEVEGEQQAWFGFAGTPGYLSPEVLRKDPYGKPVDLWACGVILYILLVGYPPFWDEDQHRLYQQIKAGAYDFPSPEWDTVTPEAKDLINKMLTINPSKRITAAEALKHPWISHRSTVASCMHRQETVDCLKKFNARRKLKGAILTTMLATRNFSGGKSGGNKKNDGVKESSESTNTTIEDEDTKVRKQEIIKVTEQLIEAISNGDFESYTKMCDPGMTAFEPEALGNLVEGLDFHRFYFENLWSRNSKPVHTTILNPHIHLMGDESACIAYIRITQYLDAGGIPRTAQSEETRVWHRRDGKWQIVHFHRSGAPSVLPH

CC(c1ccc(-c2ccccc2)c(F)c1)c1cc(/N=C(/N)N(C)C)on1.Cl (stereo not shown) [Compound (Ib), N′-{3-[1-(2-fluorobiphenyl-4-yl)-ethyl]-isoxazol-5-yl}-N,N-dimethyl-guanidine hydrochloride]
Inhibition rate (%) (CaMKIIα derived from rat; Concentration 0.1 μm): 13% | Inhibition rate (%) (CaMKIIα derived from rat; Concentration 1 μm): 42% | Inhibition rate (%) (CaMKIIα derived from rat; Concentration 10 μm): 71%

CNc1nc(C(C)c2ccc(-c3ccccc3)c(F)c2)cs1 (stereo not shown) [Compound (II), 4-[1-(2-fluorobiphenyl-4-yl)ethyl]-2-(methylamino)thiazole]
Inhibition rate (%) (CaMKIIα derived from rat; Concentration 0.1 μm): 45% | Inhibition rate (%) (CaMKIIα derived from rat; Concentration 1 μm): 62% | Inhibition rate (%) (CaMKIIα derived from rat; Concentration 10 μm): 92% | hind paw volume / edema volume ([1]; prophylactic model, oral once a day for 21 days, Compound (II) 50 mg/kg, FIGS. 8 and 9): remarkable edema suppressing effect | change of edema volume of hind paw ([1]; therapeutic model, oral once a day for five days from 17th day, Compound (II) 10 to 50 mg/kg, FIGS. 6 and 7): remarkable edema suppressing effect | edema in mouse type III allergy reaction tests [2]: inhibitory effects on edema | effects on adjuvant arthritis rats (adjuvant arthritis rats): anti-arthritis effects

CCN/C(N)=N/c1cc(C(C)c2ccc(-c3ccccc3)c(F)c2)no1.Cl (stereo not shown) [Compound (Ic), N-ethyl-N′-{3-[1-(2-fluorobiphenyl-4-yl)-ethyl]-isoxazol-5-yl}-guanidine hydrochloride]
Inhibition rate (%) (CaMKIIα derived from rat; Concentration 0.1 μm): 11% | Inhibition rate (%) (CaMKIIα derived from rat; Concentration 1 μm): 36% | Inhibition rate (%) (CaMKIIα derived from rat; Concentration 10 μm): 68%

CN(Cc1cnc2nc(N)nc(N)c2n1)c1ccc(C(=O)N[C@@H](CCC(=O)O)C(=O)O)cc1 [methotrexate, reference compound]
joint destruction score of the left hind paw, representative individual which showed an average score in the group ([3]; control score 3): 2 | joint destruction score of the right hind paw, representative individual which showed an average score in the group ([3]; control score 10): 9 | increased volume and onset ratio of left hind paw [4]: onset suppressing effect and edema suppressing effect

C[C@]12C=CC(=O)C=C1CC[C@@H]1[C@@H]2[C@@H](O)C[C@@]2(C)[C@H]1CC[C@]2(O)C(=O)CO [Prednisolone, prednisolone, reference compound]
weight gain (natural accruement of weight by growth) ([5]; Compound (I) 20 to 80 mg/kg, prednisolone 3 mg/kg, oral once a day 40 days, FIG. 14): strongly suppressed natural accruement of weight by growth | Death Rate ([5]; Dose 3 mg/kg oral once a day 40 days): 0/10 | Onset Rate ([5]; Dose 3 mg/kg oral once a day 40 days, 3 mg/kg): 2 of 10 and 2/10
